Structures are written as SMILES. ≈ marks a conversion by molar mass, not a printed value.

Data set [1] has as its system Past haemolytica BBPO102 N811. Nature of the data set: Minimum inhibition concentration (MIC), agar double dilution method. In kind it is cell-based, Pasteurella haemolytica. As to conditions: Past haemolytica BBPO102 N811, strain from cattle; BHI agar. The protocol: (§1) Test 1; Minimum Inhibition Concentration (MIC)
(§2) MIC was measured, based on the standard method of Japan Society of Chemotherapy, on a BHI agar medium (Brain heart-infusion agar, made by Difco Laboratories Inc.(USA)) with respect to Pasteurella and on a Mueller hinton agar medium (Mueller hinton agar, made by Difco, Laboratories Inc.(USA)) with respect to the other test bacteria in both cases according to the double dilution method.

Data set [2] concerns Past haemolytica BAPO103 S801. Described as above. The data set is classed as cell-based, Pasteurella haemolytica. As to conditions: Past haemolytica BAPO103 S801, strain from poultry; BHI agar. The method, then: as §1, §2
A further data set relates to E. coli K-12 R-5. The data set is described as above. In kind it is cell-based, Escherichia coli. As to conditions: Mueller hinton agar. The protocol: as §1, §2
Data set [3] concerns Past. multocida BSPO302 No. 6. Described as above. The data set is classed as cell-based, Pasteurella multocida. The note with it: Past. multocida BSPO302 No. 6, strain from a pig; BHI agar. The method, then:
as §1, §2

Data set [4] relates to Past. multocida BOPO305 M-17. The description is as above. The data set is classed as cell-based, Pasteurella multocida. As to conditions: Past. multocida BOPO305 M-17, strain from a sheep; BHI agar. The protocol: as §1, §2
The subject of another data set is S. aureus FDA209P. The data set is described as above. In kind it is cell-based, Staphylococcus aureus. As to conditions: Mueller hinton agar. The method, then: as §1, §2
The subject of data set [5] is S. aureus Smith (virulent strain). Nature of the data set: microbe, parasite or virus in culture. As to conditions: S. aureus Smith (virulent strain); Mueller hinton agar. The data set is classed as cell-based, Staphylococcus aureus. The protocol: as §1, §2
Data set [6] relates to Shigella dysenteriae JS11910. Nature of the data set: Minimum inhibition concentration (MIC), agar double dilution method. In kind it is cell-based. The note with it: Shigella dysenteriae JS11910; Mueller hinton agar. The protocol: as §1, §2
For data set [7], the system named is Enterobacter aerogenes ATCC13048. The description is as above. In kind it is cell-based. The note with it: Mueller hinton agar. The protocol:
as §1, §2

In data set [8] the test system is Micrococcus luteus PCI1001. The data set is described as above. In kind it is cell-based. The note with it: Mueller hinton agar. The protocol:
as §1, §2

The subject of the next data set is Serratia marcescens. Described as above. The data set is classed as cell-based. As to conditions: Mueller hinton agar. The protocol:
as §1, §2

The subject of data set [9] is Salmonella enteritidis 1891. The description is as above. The note with it: Mueller hinton agar. The data set is classed as cell-based. The method, then: as §1, §2
The next data set relates to Escherichia coli NIHJ. The description is as above. The data set is classed as cell-based. The note with it: Mueller hinton agar. The protocol:
as §1, §2

The test system of data set [10] is Klebsiella pneumoniae PCI602. The data set is described as above. The data set is classed as cell-based. The note with it: Mueller hinton agar. The method, then:
as §1, §2

In data set [11] the test system is Bacillus subtilis NRRL B-558. The data set is described as above. The data set is classed as cell-based. The note with it: Bacillus subtilis NRRL B-558; Mueller hinton agar. The protocol:
as §1, §2

The test system of data set [12] is Staphylococcus aureus 193. The data set is described as above. The data set is classed as cell-based. As to conditions: Mueller hinton agar. The protocol:
as §1, §2

The subject of data set [13] is Pasteurella haemolytica BBPO101 N791. The description is as above. In kind it is cell-based. The note with it: Pasteurella haemolytica BBPO101 N791, strain from cattle; BHI agar. The protocol: as §1, §2
The next data set has as its system Proteus vulgaris OX19. The description is as above. In kind it is cell-based. The note with it: Mueller hinton agar. The method, then:
as §1, §2

Another data set concerns ICR mice. Nature of the data set: Toxicity test, intravenous or subcutaneous injection. In kind it is in vivo.
Where [14] appears, read: intravenous injection, 0.25 mg/mouse.
Where [15] appears, read: intravenous injection, 0.5 mg/mouse.
Setting [16] is: intravenous injection, 1.0 mg/mouse.
The mark [17] stands for this setting: subcutaneous injection, 1.0 mg/mouse.
[18] abbreviates: subcutaneous injection, 2.0 mg/mouse.
[19] abbreviates: subcutaneous injection, 3.0 mg/mouse.
Where [20] appears, read: subcutaneous injection, 4.0 mg/mouse.

In the case of `CCCCCCN(CCCCCC)CC[C@H]1C[C@@H](C)C(=O)/C=C/C(C)=C/[C@H](CN(CCCCCC)CCCCCC)[C@@H](CC)OC(=O)C[C@@H](O)[C@H](C)[C@H]1O[C@@H]1O[C@H](C)C(O)C(N(C)C)C1O` (some centres unmarked) [Compound C-2], the MIC was 12.5 µg/mL (≈ 13.4 µM) in data set [1]; 100 µg/mL (≈ 107 µM) in data set [2]; greater than 100 µg/mL against E. coli K-12 R-5; 50 µg/mL (≈ 53.5 µM) in data set [3]; 50 µg/mL (≈ 53.5 µM) in data set [4]; 6.25 µg/mL (≈ 6.69 µM) with S. aureus FDA209P. Further, the MIC in data set [5] is 6.25 µg/mL (≈ 6.69 µM); in data set [6] it was greater than 100 µg/mL; in data set [7], greater than 100 µg/mL; in data set [8], 6.25 µg/mL (≈ 6.69 µM); against Serratia marcescens it was greater than 100 µg/mL; in [9], greater than 100 µg/mL. In addition, the MIC against Escherichia coli NIHJ is greater than 100 µg/mL; in data set [10], greater than 100 µg/mL; in [11], 12.5 µg/mL (≈ 13.4 µM); in data set [12], 3.13 µg/mL (≈ 3.35 µM); in data set [13], 12.5 µg/mL (≈ 13.4 µM); against Proteus vulgaris OX19 it was greater than 100 µg/mL.
For the molecule `CC[C@H]1OC(=O)C[C@@H](O)[C@H](C)[C@@H](O[C@@H]2O[C@H](C)C(O)C(N(C)C)C2O)[C@@H](CCN(Cc2ccccc2)Cc2ccccc2)C[C@@H](C)C(=O)/C=C/C(C)=C/[C@@H]1CN(Cc1ccccc1)Cc1ccccc1` (some centres unmarked) [Compound C-5], the MIC in data set [1] was 50 µg/mL (≈ 52.2 µM); in data set [2] it was greater than 100 µg/mL; in the data set on E. coli K-12 R-5, greater than 100 µg/mL; in data set [3] it was greater than 100 µg/mL; in data set [4] it was greater than 100 µg/mL; against S. aureus FDA209P it was 12.5 µg/mL (≈ 13 µM). Also, the MIC in data set [5] is 50 µg/mL (≈ 52.2 µM); in [6] it was greater than 100 µg/mL; in data set [7] it was greater than 100 µg/mL; in [8], 6.25 µg/mL (≈ 6.52 µM); against Serratia marcescens, 100 µg/mL (≈ 104 µM); in data set [9] it was greater than 100 µg/mL. Moreover, the MIC against Escherichia coli NIHJ is greater than 100 µg/mL; in data set [10] it was greater than 100 µg/mL; in data set [11], 50 µg/mL (≈ 52.2 µM); in [12] it was 12.5 µg/mL (≈ 13 µM); in data set [13], 50 µg/mL (≈ 52.2 µM); with Proteus vulgaris OX19 it was greater than 100 µg/mL.
Turning to `CC[C@H]1OC(=O)C[C@@H](O)[C@H](C)[C@@H](O[C@@H]2O[C@H](C)C(O)C(N(C)C)C2O)[C@@H](CCN2CCCCCCC2)C[C@@H](C)C(=O)/C=C/C(C)=C/[C@@H]1CN1CCCCCCC1` (some centres unmarked) [Compound C-8], the MIC in data set [1] stood at 0.39 µg/mL (≈ 0.494 µM); in data set [2], 1.56 µg/mL (≈ 1.97 µM); in the data set with E. coli K-12 R-5 it was 1.56 µg/mL (≈ 1.97 µM); in data set [3] it was 0.39 µg/mL (≈ 0.494 µM); in data set [4], 0.78 µg/mL (≈ 0.987 µM); with S. aureus FDA209P, 0.78 µg/mL (≈ 0.987 µM). Further, the MIC was 1.56 µg/mL (≈ 1.97 µM) in data set [5]; 0.78 µg/mL (≈ 0.987 µM) in [6]; 6.25 µg/mL (≈ 7.91 µM) in data set [7]; 0.20 µg/mL (≈ 0.253 µM) in data set [8]; 12.5 µg/mL (≈ 15.8 µM) in the data set on Serratia marcescens; 0.78 µg/mL (≈ 0.987 µM) in data set [9]. Further, the MIC against Escherichia coli NIHJ was found to be 1.56 µg/mL (≈ 1.97 µM); in data set [10], 3.13 µg/mL (≈ 3.96 µM); in data set [11], 3.13 µg/mL (≈ 3.96 µM); in data set [12], 0.78 µg/mL (≈ 0.987 µM); in [13], 0.20 µg/mL (≈ 0.253 µM); with Proteus vulgaris OX19 it was 6.25 µg/mL (≈ 7.91 µM). For the same molecule, the Dissection finding result in the data set with ICR mice (setting [14]) was “no abnormal finding”; with ICR mice (setting [15]), “no abnormal finding”; in the data set on ICR mice (setting [16]) it was “no abnormal finding”; in the data set on ICR mice (setting [17]), “Sores and alopecia at the administration part”; in the data set on ICR mice (setting [18]) it was “Sores and alopecia at the administration part”; with ICR mice (setting [19]), “Sores and alopecia at the administration part”. In the data set with ICR mice (setting [20]), the Dissection finding entry was “Sores and alopecia at the administration part”. For the same molecule, the Surviving number in the data set on ICR mice (setting [14]) is given as 3/3; with ICR mice (setting [15]), 3/3; with ICR mice (setting [16]), 3/3; in the data set on ICR mice (intravenous injection, 1.5 mg/mouse), 0/1 (immediate death); in the data set on ICR mice (intravenous injection, 2.0 mg/mouse), 0/3 (immediate death); with ICR mice (intravenous injection, 4.0 mg/mouse), 0/1 (immediate death). Further, the “Surviving number / number of used animals” value in the data set on ICR mice (setting [17]), with ICR mice (setting [18]), with ICR mice (setting [19]) and in the data set on ICR mice (setting [20]) was 2/2 throughout.

Source of the values: patent US6514946B1, “Macrolide antibiotics and treatment and prophylaxis of pasteurellosis using the same” (Zaidan Hojin Biseibutsu Kagaku Kenkyu Kai, priority 1999, dated 2003).
